Laboratory results taken from patent US11524948B2, “Prodrugs of alpha-ketoglutarate, alpha-ketobutyrate, alpha-ketoisovalerate, and alpha-ketoisohexanoate, and uses thereof” (The Regents of the University of California, priority 2018, dated 2022).
Entries after “also recorded” stand apart in the source; their conditions may differ.

Experiments:
mTORC2 = test: Western blot of mTORC2 signaling in H9C2 rat cardiomyocytes; assay type: cell-based; conditions: H9C2 cells, FIGS. 2C; for time course of inhibition of mTORC2 (decreased phosphorylation of Akt (S473)): 2E; for mTORC2 activity (phosphorylation of Akt (S473)): 2F
Experimental: (§1) H9C2 rat cardiomyocyte cells were grown in DMEM media (ATCC #30-2002) supplemented with 10% FBS. Stock solutions of MJX series compounds were prepared in DMSO, while the stock solution of α-ketobutyrate was prepared in dH2O. Cells were seeded in the afternoon at 70-80% confluency and the next morning treated with the indicated concentrations of compounds for the indicated times. Cells were then washed with ice-cold PBS and immediately lysed on ice with RIPA buffer. Lysates were clarified at 18,000 g at 4° C., the supernatants transferred to new tubes, mixed with […] of 5×SDS-PAGE loading buffer, and heated for 10 minutes at 70° C. Lysates were then separated by SDS-PAGE using 4-12% Bis-Tris gels (Life Technologies) and transferred to PVDF membranes (Millipore) for western blotting analysis. All antibodies were purchased from Cell Signaling.

H9C2 Cells [1] = test: [U-13C6]glucose tracing of metabolites in H9C2 cells (LC-MS); assay type: cell-based, rat; conditions: 24 h, FIG. 4
Experimental: To evaluate the metabolic pathways in use, H9C2 Cells were cultured with designated compounds and medium containing [U-^13C6]glucose for 24 h. Metabolites were extracted for LC-MS detection.

mTOR signaling = test: Western blot of mTOR signaling in H9C2 rat cardiomyocytes; assay type: cell-based; conditions: H9C2 cells; for time course of inhibition of mTOR signaling: 15 min to 8 hr, FIGS. 2C, 2E, 2F; for inhibition of mTOR signaling, dose-response: FIG. 2D
Experimental: as §1

H9C2 Cells [2] = test: Proliferation of H9C2 cells; assay type: cell-based, rat; conditions: FIGS. 6A & 6B
mTORC1 = test: Western blot of mTORC1 signaling in H9C2 rat cardiomyocytes; assay type: cell-based; conditions: H9C2 cells; for mTORC1 signaling (phosphorylation of mTORC1 targets S6K (T389), 4E-BP1 (S65), ULK1 (S757)): western blot, FIGS. 2A, 2B, 2C, 2F
Experimental: as §1

Caenorhabditis elegans = test: Lifespan of N2 wildtype C. elegans on NGM treatment plates containing compound; assay type: in vivo; design: mean lifespan: unit not given here; conditions: for % increase (mean lifespan): vs DMSO; for effect on C. elegans lifespan: FIGS. 1A-1C, result in words
Experimental: The anti-aging effects of MJX001-MJX005 were tested in the nematode Caenorhabditis elegans. Worms of the N2 wildtype strain of C. elegans were age-synchronized by performing either a timed egg lay or an egg preparation (mix <100 gravid worms in 70 μl M9 buffer, 25 μl bleach and 5 μl 10 N NaOH). Once the worms reached day 1 of adulthood, they were picked onto NGM treatment plates containing 1.5% dimethyl sulfoxide (DMSO; Sigma D8418), 49.5 μM 5-fluoro-2′-deoxyuridine (FUDR, Sigma F0503), and either […] (Sigma K401) or one of the MJX series test compounds. All plates were adjusted to pH 6.0 (i.e., the same pH as the control plates) if necessary by the addition of NaOH. Once dry, the plates were seeded with OP50 E. coli as the C. elegans food source. […] Worms were moved to new plates every 4 days. All worms were maintained in a single humidified, temperature-controlled incubator at 20° C. Lifespan curves were generated and statistical analyses performed.

AMPK signaling pathway = test: Western blot of AMPK signaling in H9C2 rat cardiomyocytes; assay type: cell-based; conditions: H9C2 cells; for time course of AMPK activation: 15 min to 8 hr, FIGS. 2C, 2E; for time course of AMPK activation / activation of AMPK signaling pathway (phosphorylation of AMPK targets ACC (S79) and ULK1 (S555)): 2F; for activation of AMPK signaling pathway (phosphorylation of AMPK targets ACC (S79) and ULK1 (S555)): western blot, FIGS. 2A, 2B; for activation of AMPK, dose-response: FIG. 2D
Experimental: as §1

C57BL/6 mice = conditions: stated as known; cited from earlier work
[3] = 2 mM, FIG. 1B experiment, DMSO control 15.3
[4] = 4 mM, FIG. 1B experiment, DMSO control 15.3
[5] = after only 15 minutes treatment, FIG. 2C
[6] = 4 mM, FIG. 8 experiment, DMSO control 15.3

With `C/C=c1\oc(=O)/c(=C/C)oc1=O` [MJX004] the “time course of inhibition of mTORC2 (decreased phosphorylation of Akt (S473))” value (mTORC2) was “strongest after just 15 and 30 minutes treatment, but recovered to normal levels by 2 hr and beyond”, the “M2 citrate using [U-13C6]glucose as a tracer” value (H9C2 Cells [1]) was “decreased M2 citrate” and the “time course of inhibition of mTOR signaling” value (mTOR signaling) was “less potent but more prolonged; also recorded: more prolonged effect on mTOR signaling”. For the same compound, the “effect on proliferation (inhibition), rank order” value (H9C2 Cells [2]) was “strongest effect on proliferation”, the “inhibition of mTORC1” value (mTORC1; at 4 and 8 hr, FIG. 2E) was “sustained inhibition of mTORC1” and the “mTORC1 signaling (phosphorylation of mTORC1 targets S6K (T389), 4E-BP1 (S65), ULK1 (S757))” value (shortened to “mTORC1 signaling”) (mTORC1) was “inhibited mTORC1 signaling”. The mean lifespan (Caenorhabditis elegans; 1 mM, FIG. 1B experiment, DMSO control 15.3) was 19.7, the “% increase (mean lifespan)” value (Caenorhabditis elegans; 1 mM, FIG. 1B experiment) was 28.7% and the mean lifespan (Caenorhabditis elegans; [3]) was 20.0. For the same compound, the “% increase (mean lifespan)” value (Caenorhabditis elegans; 2 mM, FIG. 1B experiment) was 30.9%, the mean lifespan (Caenorhabditis elegans; [4]) was 21.1 and the “% increase (mean lifespan)” value (Caenorhabditis elegans; 4 mM, FIG. 1B experiment) was 38.0%. The “effect on C. elegans lifespan” value (Caenorhabditis elegans) was “dose-dependent increases in lifespan”, the “time course of AMPK activation” value (AMPK signaling pathway) was “less potent but more prolonged” and the “activation of AMPK” value (AMPK signaling pathway; at 4 hr, FIG. 2E) was “strong activation of AMPK”. The “activation of AMPK signaling pathway (phosphorylation of AMPK targets ACC (S79) and ULK1 (S555))” value (from here on “activation of AMPK signaling pathway”) (AMPK signaling pathway) was “activate the AMPK pathway”.

With `C/C=C1\OC(CC)(C(=O)OCC)OC1=O` (stereo not shown) [MJX005] the “time course of inhibition of mTORC2 (decreased phosphorylation of Akt (S473))” value (mTORC2) was “strongest after just 15 and 30 minutes treatment, but recovered to normal levels by 2 hr and beyond”, the “mTORC2 activity (phosphorylation of Akt (S473))” value (mTORC2) was “inhibits both mTORC1 and mTORC2 activity” and the “inhibition of mTOR signaling, dose-response” value (“inhibition … dose-response” for short) (mTOR signaling; 0.8 mM or lower) was “no significant effect”. The “inhibition … dose-response” value (mTOR signaling; 1.6 mM) was “modest effect”, the “inhibition … dose-response” value (mTOR signaling; 3.2 mM) was “strong effect” and the “time course of inhibition of mTOR signaling” value (mTOR signaling) was “greatly diminished by 2 hr and largely absent at 4 hr and 8 hr; also recorded: only inhibited mTOR signaling transiently”. The “inhibition of mTOR signaling” value (mTOR signaling; [5]) was “inhibition of mTOR signaling”, the “mTORC1 signaling” value (mTORC1) was “inhibited mTORC1 signaling; also recorded: inhibits both mTORC1 and mTORC2 activity” and the mean lifespan (Caenorhabditis elegans; [3]) was 18.2. The “% increase (mean lifespan)” value (Caenorhabditis elegans; 2 mM, FIG. 1B experiment) was 19.1%, the mean lifespan (Caenorhabditis elegans; [4]) was 19.6 and the “% increase (mean lifespan)” value (Caenorhabditis elegans; 4 mM, FIG. 1B experiment) was 27.7%. For the same compound, the “effect on C. elegans lifespan” value (Caenorhabditis elegans) was “dose-dependent increases in lifespan”, the “activation of AMPK compared with α-ketobutyrate” value (AMPK signaling pathway) was “more potent activation of AMPK than α-ketobutyrate” and the “activation of AMPK, dose-response” value (AMPK signaling pathway; 0.8 mM or lower) was “no significant effect”. For the same compound, the “activation of AMPK, dose-response” value (AMPK signaling pathway; 1.6 mM) was “modest effect”, the “activation of AMPK, dose-response” value (AMPK signaling pathway; 3.2 mM) was “strong effect” and the “time course of AMPK activation” value (AMPK signaling pathway) was “greatly diminished by 2 hr and largely absent at 4 hr and 8 hr”. The “activation of AMPK” value (AMPK signaling pathway; [5]) was “strong activation of AMPK” and the “activation of AMPK signaling pathway” value (AMPK signaling pathway) was “activate the AMPK pathway”.

With `C/C=C1\OC(CCC(=O)OCC)(C(=O)OCC)OC1=O` (stereo not shown) [MJX006] the “mTORC2 activity (phosphorylation of Akt (S473))” value (mTORC2) was “inhibit mTORC1 and mTORC2 signaling”, the “time course of inhibition of mTOR signaling” value (mTOR signaling) was “exhibited similar kinetics; also recorded: only inhibited mTOR signaling transiently” and the “mTORC1 signaling” value (mTORC1) was “inhibit mTORC1 and mTORC2 signaling”. For the same compound, the mean lifespan (Caenorhabditis elegans; 1 mM, FIG. 8 experiment, DMSO control 15.3) was 16.2, the “% increase (mean lifespan)” value (Caenorhabditis elegans; 1 mM, FIG. 8 experiment) was 6.3% and the mean lifespan (Caenorhabditis elegans; 2 mM, FIG. 8 experiment, DMSO control 15.3) was 19.0. For the same compound, the “% increase (mean lifespan)” value (Caenorhabditis elegans; 2 mM, FIG. 8 experiment) was 24.2%, the mean lifespan (Caenorhabditis elegans; [6]) was 17.4 and the “% increase (mean lifespan)” value (Caenorhabditis elegans; 4 mM, FIG. 8 experiment) was 13.9%. For the same compound, the “N2 C. elegans lifespan” value (Caenorhabditis elegans; all three tested doses (1, 2, 4 mM), FIG. 8, result in words) was “extended significantly”, the “time course of AMPK activation” value (AMPK signaling pathway) was “highest at 15 and 30 minutes, is weaker but still evident at 1 hour, and has largely returned to baseline by 2 hours” and the “activation of AMPK signaling pathway” value (AMPK signaling pathway) was “rapidly promote AMPK activity”.

In the case of “α-ketobutyric acid (2-oxobutanoic acid) [aKB, reference compound]”, the “hair loss in old C57BL/6 mice” value (C57BL/6 mice) is given as “prevents hair loss”, the “hair regrowth in mice” value (C57BL/6 mice) is given as “stimulates hair regrowth” and the mean lifespan (Caenorhabditis elegans; 4 mM, FIG. 1A experiment, DMSO control 11.7) is given as 17.7. The “% increase (mean lifespan)” value (Caenorhabditis elegans; 4 mM, FIG. 1A experiment) was 51.0%, the mean lifespan (Caenorhabditis elegans; [4]) was 20.4 and the “% increase (mean lifespan)” value (Caenorhabditis elegans; 4 mM, FIG. 1B experiment) was 33.3%. The mean lifespan (Caenorhabditis elegans; 4 mM, FIG. 1C experiment, DMSO control 14.8) was 19.7, the “% increase (mean lifespan)” value (Caenorhabditis elegans; 4 mM, FIG. 1C experiment) was 33.3% and the mean lifespan (Caenorhabditis elegans; [6]) was 19.1. For the same compound, the “% increase (mean lifespan)” value (Caenorhabditis elegans; 4 mM, FIG. 8 experiment) was 24.6%.
